The test concerns the target T1, recombinant human 15-PGDH (Homo sapiens, UniProt P15428).
T1 construct: purchased R&D Systems
T1 sequence (P15428 1-266): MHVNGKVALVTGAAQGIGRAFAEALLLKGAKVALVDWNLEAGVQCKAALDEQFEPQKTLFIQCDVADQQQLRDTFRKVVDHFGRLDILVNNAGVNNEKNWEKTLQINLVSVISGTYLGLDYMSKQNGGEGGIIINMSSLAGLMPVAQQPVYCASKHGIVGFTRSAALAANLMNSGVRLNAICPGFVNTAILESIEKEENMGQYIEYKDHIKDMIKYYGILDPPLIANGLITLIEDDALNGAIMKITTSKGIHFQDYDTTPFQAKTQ
In words: 15-PGDH enzyme inhibition test. The conditions noted are these: 4 nM recombinant human 15-PGDH, 30 μM PGE2, 1 mM NAD+, 60 minutes after starting the reaction; read-out: IC50 Value. The class given is biochemical. In a few lines: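 Fluorescence (excitation 340 nm, emission 440 nm) measured 60 min after adding 1 mM NAD+ and 30 μM PGE2 to 4 nM recombinant human 15-PGDH, which had stood 12 min at room temperature with compound in pH 8.0 Tris-HCl buffer. Concentration-response curves yield IC50, binned into potency categories.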
As usually defined, the IC50 is the concentration that gives 50% inhibition. In the case of `Cn1nc2cc(N3CCOc4cc(C(=O)N5CCC[C@H]5C(N)=O)cnc43)ccn2c1=O` [Example 36-1, (S)-1-(4-(2-Methyl-3-oxo-2,3-dihydro-[1,2,4]triazolo[4,3-a]pyridin-7-yl)-3,4-dihydro-2H-pyrido[3,2-b][1,4]oxazine-7-carbonyl)pyrrolidine-2-carboxamide], the IC50 is above 100 nM.

As to `COCCN1Cc2cc(N3CCCc4cc(C(=O)N5CCC(F)(F)CC5)cnc43)ccc2C1=O` [Example 1-82], the IC50 is below 10 nM.

With `CCN1Cc2cc(N3CCCc4cc(C(=O)N5CC=CCC5)cnc43)ccc2C1=O` [Example 8-75], the half-maximal inhibitory concentration (IC50) is below 10 nM.

For the molecule `COc1ccc(CN2Cc3cc(N4CCOc5cc(C(=O)N6CCC(F)(F)CC6)ccc54)ccc3C2=O)c(OC)c1` [Example 1-150], the IC50 was below 10 nM.

As for `CCCn1nc2cc(N3CCCc4cc(C(=O)N5CCCCC5)cnc43)ccn2c1=O` [Example 1-202], the IC50 was below 10 nM.

Turning to `Cn1nc2cc(N3CCOc4cc(C(=O)N5CCCCCC5)cnc43)ccn2c1=O` [Example 8-102], the concentration for half-maximal inhibition (IC50) was below 10 nM.

In the case of `Cc1nccc(N2CCOc3cc(C(=O)N4CCC(F)(F)CC4)ccc32)n1` [Example 24-3], the IC50 lay in the range of 10 to 100 nM.

For the molecule `Cn1nc2cc(N3CCOc4cc(C(=O)N5CCCC5)cnc43)ccn2c1=O` [Example 8-20], the IC50 is below 10 nM.

Regarding `COc1cc(N2CCOc3cc(C(=O)N4CC=CCC4)ccc32)ccc1C(N)=O` [Example 5-1, 2-Methoxy-4-(7-(1,2,3,6-tetrahydropyridine-1-carbonyl)-2,3-dihydro-4H-benzo[b][1,4]oxazin-4-yl)benzamide], the IC50 was below 10 nM.

Turning to `CC1CN(C(=O)c2cnc3c(c2)OCCN3c2ccc3c(c2)CN(C)C3=O)CCC1(F)F` (stereo not shown) [Example 8-210], the IC50 was below 10 nM.

Regarding `Cn1nc2cc(N3CCOc4cc(C(=O)N5C[C@H]6C[C@@H](C5)C6)cnc43)ccn2c1=O` [Example 8-40], the IC50 is below 10 nM.

Regarding `CCn1nc2cc(N3CCCc4cc(C(=O)N5CCCC(F)(F)C5)cnc43)ccn2c1=O` [Example 8-164], the IC50 is below 10 nM.

For the molecule `O=C(c1cnc2c(c1)OCCN2c1ccn2c(=O)n(Cc3ccncc3)nc2c1)N1CCCCC1` [Example 1-34], the IC50 is below 10 nM.

Consider `COCCn1nc2cc(N3CCCc4cc(C(=O)N5CCC[C@H](CF)C5)cnc43)ccn2c1=O` [Example 1-116], for which the half-inhibitory concentration (IC50) was below 10 nM.

Consider `O=C(O)c1ccc(N2CCOc3nc(C(=O)N4CCCCC4)ccc32)cc1` [Example 4-4], for which the IC50 is below 10 nM.

With `O=C(O)c1ccc(N2CCOc3cc(C(=O)N4CCCCC4)c(Cl)cc32)cc1` [Example 2-3], the IC50 was below 10 nM.

For the molecule `O=C(c1cnc2c(c1)CCCN2c1cnc2c(=O)[nH]cnc2c1)N1CCC(F)(F)CC1` [Example 1-192], the IC50 is below 10 nM.

For `Cn1nnc(-c2ccc(N3CCOc4cc(C(=O)N5CCCCC5)cnc43)cc2)n1` [Example 1-252], the 50% inhibitory concentration (IC50) was below 10 nM.

Turning to `CS(=O)(=O)CCc1ccc(N2CCOc3cc(C(=O)N4CCCCC4)ccc32)cc1` [Example 1-161], the IC50 was below 10 nM.

In the case of `Cn1nc2cc(N3CCOc4cc(C(=O)N5C[C@H](O)C[C@H](O)C5)cnc43)ccn2c1=O` [Example 8-108], the IC50 is 10 to 100 nM.

`Cn1ccc2cc(N3CCCc4cc(C(=O)N5CCCCC5)cnc43)ccc2c1=O` [Example 1-174]: the IC50 was below 10 nM.

Take `Cn1cnc2cc(N3CCCc4cc(C(=O)N5CCCCC5)cnc43)ccc2c1=O` [Example 1-87]: the IC50 was below 10 nM.

For `CC1c2cc(N3CCOc4cc(C(=O)N5CCCCC5)cnc43)ccc2C(=O)N1C` (single isomer, unassigned) [16-1 Isomer B, 2,3-Dimethyl-5-(7-(piperidine-1-carbonyl)-2,3-dihydro-4H-pyrido[3,2-b] [1,4]oxazin-4-yl)isoindolin-1-one], the IC50 is below 10 nM.

Take `O=C(O)c1ccc(N2CCOc3cc(C(=O)N4CCCCC4)ccc32)cc1` [Example 2-7]: the IC50 is below 10 nM.

In the case of `CCOc1noc2cc(N3CCOc4cc(C(=O)N5CCCCC5)cnc43)ccc12` [Example 8-215], the IC50 was below 10 nM.

As to `CCn1nc2cc(N3CCCc4cc(C(=O)N5CCCC5)cnc43)ccn2c1=O` [Example 8-148], the IC50 was below 10 nM.

For the molecule `CCN1Cc2cc(N3CCCc4cc(C(=O)N5CCC[C@H](CF)C5)cnc43)ccc2C1=O` [Example 8-92], the IC50 is below 10 nM.

As to `O=C(c1cnc2c(c1)OCCN2c1ccc2nccnc2c1)N1CCCCC1` [Example 1-258], the IC50 is below 10 nM.

`CCn1nc2cc(N3CCCc4cc(C(=O)N5CCC(F)(F)C(C)C5)cnc43)ccn2c1=O` (stereo not shown) [Example 8-169]: the IC50 was below 10 nM.

In the case of `CC(C)(O)c1ccc(N2CCOc3cc(C(=O)N4CCCCC4)ccc32)cc1` [Example 10-1, (4-(4-(2-Hydroxypropan-2-yl)phenyl)-3,4-dihydro-2H-benzo[b][1,4]oxazin-7-yl)(piperidin-1-yl)methanone], the IC50 was below 10 nM.

`CC(C)(O)Cn1nc2cc(N3CCOc4cc(C(=O)N5CCCCC5)cnc43)ccn2c1=O` [Example 15-1, 2-(2-Hydroxy-2-methylpropyl)-7-(7-(piperidine-1-carbonyl)-2,3-dihydro-4H-pyrido[3,2-b][1,4]oxazin-4-yl)-[1,2,4]triazolo[4,3-a]pyridin-3(2H)-one]: the IC50 is below 10 nM.

As for `Cn1nc2cc(N3CCOc4cc(C(=O)N5CCC(O)CC5)cnc43)ccn2c1=O` [Example 8-230], the concentration for half-maximal inhibition (IC50) was below 10 nM.

For `C[C@H]1CCN(C(=O)c2cnc3c(c2)OCCN3c2ccn3c(=O)n(C)nc3c2)C1` [Example 8-35], the IC50 is below 10 nM.

Turning to `Cn1nc2cc(N3CCCc4cc(C(=O)N5CCC[C@@H](CF)C5)cnc43)ccn2c1=O` [Example 1-119], the IC50 is below 10 nM.

Regarding `O=C(O)c1cccc(N2CCCc3cc(C(=O)N4CCCCC4)cnc32)c1` [Example 4-20], the IC50 fell in the range of 10 to 100 nM.

In the case of `CN1Cc2cc(N3CCOc4cc(C(=O)N5CCC[C@@H](F)C5)cnc43)ccc2C1=O` [Example 8-199], the IC50 is below 10 nM.

Take `COCCN1Cc2cc(N3CCCc4cc(C(=O)N5CCC(F)(F)CC5)cnc43)ncc2C1=O` [Example 1-86]: the IC50 was 10 to 100 nM.

On to `CC(O)CCNC(=O)c1cnc2c(c1)OCCN2c1ccn2c(=O)n(C)nc2c1` (stereo not shown) [Example 8-180], for which the IC50 was in the range of 10 to 100 nM.

As for `CN1CCN(c2ccn3c(=O)n(C)nc3c2)c2ncc(C(=O)N3CCC(F)(F)CC3)cc21` [Example 29-4], the IC50 was below 10 nM.

With `N#Cc1ccc(N2CCOc3cc(C(=O)N4CCCCC4)ccc32)cc1` [Example 1-157], the IC50 was below 10 nM.

For the molecule `CN1Cc2cc(N3CCOc4cc(C(=O)N5CCCC(C)(F)C5)cnc43)ccc2C1=O` (stereo not shown) [Example 8-209], the half-inhibitory concentration (IC50) is below 10 nM.

For `Cn1nc2cc(N3CCCc4cc(C(=O)N5CCCCCCC5)cnc43)ccn2c1=O` [Example 8-125], the IC50 was below 10 nM.

Turning to `C[C@H]1CCCN(C(=O)c2cnc3c(c2)OCCN3c2ccn3c(=O)[nH]nc3c2)C1` [Example 1-42], the half-maximal inhibitory concentration (IC50) was below 10 nM.

In the case of `CCC(O)CNC(=O)c1cnc2c(c1)OCCN2c1ccn2c(=O)n(C)nc2c1` (stereo not shown) [Example 8-178], the IC50 is above 100 nM.

As for `CNC(=O)c1ccc(N2CCCc3cc(C(=O)N4CCCCC4)cnc32)cc1C` [Example 1-207], the IC50 was 10 to 100 nM.

For the molecule `C[C@H]1CCCN(C(=O)c2cnc3c(c2)OCCN3c2ccn3c(=O)n(C)nc3c2)C1` [Example 8-34], the IC50 was below 10 nM.

Regarding `Cn1nc2cc(N3CCOc4cc(C(=O)N5CCCCC5)cnc43)cc(-n3ccnc3)n2c1=O` [Example 11-4], the IC50 was 10 to 100 nM.

Take `Cn1nc2cc(N3CCOc4cc(C(O)C5CCC(F)(F)CC5)cnc43)ccn2c1=O` (stereo not shown) [Example 19-2]: the IC50 lay in the range of 10 to 100 nM.

Consider `CN(CC1CCCC1)C(=O)c1cnc2c(c1)OCCN2c1ccn2c(=O)n(C)nc2c1` [Example 17-3], for which the IC50 is below 10 nM.

As for `CNC(=O)c1ncc(N2CCCc3cc(C(=O)N4CCCCC4)cnc32)cc1F` [Example 1-69], the IC50 was below 10 nM.

In the case of `CCn1nc2cc(N3CCOc4cc(C(=O)N5CCCCC5)cnc43)ccn2c1=O` [Example 8-15], the 50% inhibitory concentration (IC50) was below 10 nM.

With `CCn1nc2cc(N3CCCc4cc(C(=O)N5CCCC[C@@H]5C)cnc43)ccn2c1=O` [Example 8-158], the concentration for half-maximal inhibition (IC50) is below 10 nM.

With `Cn1nc2cc(N3CCOc4cc(SC5CCCCC5)cnc43)ccn2c1=O` [Example 1-110], the IC50 is below 10 nM.

Turning to `O=C1NCc2cc(N3CCCc4cc(C(=O)N5CCC(F)(F)CC5)cnc43)ccc21` [Example 14-5], the IC50 was below 10 nM.

On to `NC(=O)c1ccc(N2CCOc3cc(C(=O)N4CCCCC4)cnc32)cc1` [Example 6-17], for which the IC50 was below 10 nM.

Regarding `CCN1Cc2cc(N3CCCc4cc(C(=O)N5CCN(C)CC5)cnc43)ccc2C1=O` [Example 8-73], the IC50 is below 10 nM.

On to `CCN1Cc2cc(N3CCCc4cc(C(=O)N5CCC[C@@H](F)C5)cnc43)ccc2C1=O` [Example 8-83], for which the IC50 was below 10 nM.

Take `O=C(c1cnc2c(c1)OCCN2c1ccn2c(=O)n(CC(F)(F)F)nc2c1)N1CCCCC1` [Example 27-3]: the IC50 was below 10 nM.

`COc1cc(N2CCOc3cc(C(=O)N4CCCCC4)cnc32)ccc1S(C)(=O)=O` [Example 1-255]: the IC50 is 10 to 100 nM.

In the case of `COCCn1nc2cc(N3CCCc4cc(C(=O)N5CCC(F)(F)CC5)cnc43)ccn2c1=O` [Example 1-78], the IC50 was below 10 nM.

As for `O=C(c1cnc2c(c1)OCCN2c1ccn2c(=O)n(CC3COC3)nc2c1)N1CCCCC1` [Example 1-36], the IC50 was below 10 nM.
